Reference: ChEMBL document CHEMBL1201862, “PubChem BioAssay data set” (2004)
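Briefly, cells in 96-well plates were exposed to five compound concentrations for 48 h, and endpoints were estimated by linear interpolation. GI50: concentration for 50% inhibition of growth.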 Calls of active or inactive are those of the source. Cut-off read from the data, not from the text of the source: active = GI50 up to about 1.1 µM and inactive = higher.

How the values were obtained:
Assay in all cases: NCI-60 cell line screen, 48 h
786-0 = test system: 786-0
A498 = test system: A498
A549 = test system: A549
ACHN = test system: ACHN
CAKI-1 = test system: CAKI-1
CCRF-CEM = test system: CCRF-CEM
COLO 205 = test system: COLO 205
DLD-1 = test system: DLD-1
DMS-114 = test system: DMS-114
HCT-116 = test system: HCT-116
HCT-15 = test system: HCT-15
HL-60 = test system: HL-60
HOP-18 = test system: HOP-18
HOP-62 = test system: HOP-62
HOP-92 = test system: HOP-92
HT-29 = test system: HT-29
IGROV-1 = test system: IGROV-1
K562 = test system: K562
KM-20L2 = test system: KM-20L2
KM12 = test system: KM12
LOX IMVI = test system: LOX IMVI
LXFL 529 = test system: LXFL 529
M14 = test system: M14
M19-MEL = test system: M19-MEL
MOLT-4 = test system: MOLT-4
Malme-3M = test system: Malme-3M
NCI-H226 = test system: NCI-H226
NCI-H23 = test system: NCI-H23
NCI-H460 = test system: NCI-H460
NCI-H522 = test system: NCI-H522
OVCAR-3 = test system: OVCAR-3
OVCAR-4 = test system: OVCAR-4
OVCAR-5 = test system: OVCAR-5
OVCAR-8 = test system: OVCAR-8
RPMI-8226 = test system: RPMI-8226
SF-268 = test system: SF-268
SF-295 = test system: SF-295
SF-539 = test system: SF-539
SK-MEL-28 = test system: SK-MEL-28
SK-MEL-2 = test system: SK-MEL-2
SK-MEL-5 = test system: SK-MEL-5
SK-OV-3 = test system: SK-OV-3
SN12C = test system: SN12C
SNB-19 = test system: SNB-19
SNB-75 = test system: SNB-75
SNB-78 = test system: SNB-78
SR = test system: SR
SW-620 = test system: SW-620
TK-10 = test system: TK-10
U-251 = test system: U-251
UACC-257 = test system: UACC-257
UACC-62 = test system: UACC-62
UO-31 = test system: UO-31
EKVX = test system: EKVX
HCC 2998 = test system: HCC 2998
RXF 393 = test system: RXF 393

Structure (SMILES): CN(C)CCNc1ccc2ncn3c4ccccc4c(=O)c1c23
- GI50 (786-0): 2.03 µM (inactive)
- GI50 (A498): 6.93 µM (inactive)
- GI50 (A549): 1.82 µM (inactive)
- GI50 (ACHN): 1.26 µM (inactive)
- GI50 (CAKI-1): 2.26 µM (inactive)
- GI50 (CCRF-CEM): 2.25 µM (inactive)
- GI50 (COLO 205): 0.94 µM (active)
- GI50 (DLD-1): 1.96 µM (inactive)
- GI50 (DMS-114): 2.02 µM (inactive)
- GI50 (HCT-116): 0.459 µM (active)
- GI50 (HCT-15): 2.85 µM
- GI50 (HL-60): 7.73 µM (inactive)
- GI50 (HOP-18): 1.17 µM (inactive)
- GI50 (HOP-62): 4.46 µM (inactive)
- GI50 (HOP-92): 2.3 µM (inactive)
- GI50 (HT-29): 1.38 µM (inactive)
- GI50 (IGROV-1): 2.42 µM (inactive)
- GI50 (K562): > 100 µM (inactive)
- GI50 (KM-20L2): 2.13 µM (inactive)
- GI50 (KM12): 2.44 µM (inactive)
- GI50 (LOX IMVI): 1.15 µM (inactive)
- GI50 (LXFL 529): 2.7 µM (inactive)
- GI50 (M14): 3.11 µM (inactive)
- GI50 (M19-MEL): 2.96 µM (inactive)
- GI50 (MOLT-4): 0.615 µM (active)
- GI50 (Malme-3M): 2.34 µM (inactive)
- GI50 (NCI-H226): 1.91 µM (inactive)
- GI50 (NCI-H23): 3.32 µM (inactive)
- GI50 (NCI-H460): 0.805 µM (active)
- GI50 (NCI-H522): 1.29 µM (inactive)
- GI50 (OVCAR-3): 7.76 µM (inactive)
- GI50 (OVCAR-4): 1.99 µM (inactive)
- GI50 (OVCAR-5): 1.66 µM (inactive)
- GI50 (OVCAR-8): 1.15 µM (inactive)
- GI50 (RPMI-8226): 2.84 µM (inactive)
- GI50 (SF-268): 1.91 µM (inactive)
- GI50 (SF-295): 2.47 µM (inactive)
- GI50 (SF-539): 3.62 µM (inactive)
- GI50 (SK-MEL-28): 3.93 µM (inactive)
- GI50 (SK-MEL-2): 2.99 µM (inactive)
- GI50 (SK-MEL-5): 2.74 µM (inactive)
- GI50 (SK-OV-3): 2.09 µM (inactive)
- GI50 (SN12C): 2.9 µM (inactive)
- GI50 (SNB-19): 7.96 µM (inactive)
- GI50 (SNB-75): 3.25 µM (inactive)
- GI50 (SNB-78): 3.04 µM (inactive)
- GI50 (SR): 0.822 µM (active)
- GI50 (SW-620): 0.826 µM (active)
- GI50 (TK-10): 2.93 µM (inactive)
- GI50 (U-251): 3.02 µM (inactive)
- GI50 (UACC-257): 2.97 µM (inactive)
- GI50 (UACC-62): 3.22 µM (inactive)
- GI50 (UO-31): 1.53 µM (inactive)

Structure (SMILES): Cc1nnc(N/N=C2/C(=O)Nc3c(Cl)cc(Cl)cc32)n1N
- GI50 (786-0): > 100 µM (inactive)
- GI50 (A498): > 100 µM (inactive)
- GI50 (A549): > 100 µM (inactive)
- GI50 (ACHN): > 100 µM (inactive)
- GI50 (CAKI-1): 81.1 µM (inactive)
- GI50 (CCRF-CEM): 57.5 µM (inactive)
- GI50 (COLO 205): > 100 µM (inactive)
- GI50 (DLD-1): > 100 µM (inactive)
- GI50 (EKVX): > 100 µM (inactive)
- GI50 (HCC 2998): > 100 µM (inactive)
- GI50 (HCT-116): > 100 µM (inactive)
- GI50 (HCT-15): > 100 µM
- GI50 (HL-60): > 100 µM (inactive)
- GI50 (HOP-18): 73.1 µM (inactive)
- GI50 (HOP-62): > 100 µM (inactive)
- GI50 (HOP-92): > 100 µM (inactive)
- GI50 (HT-29): > 100 µM (inactive)
- GI50 (IGROV-1): > 100 µM (inactive)
- GI50 (K562): > 100 µM (inactive)
- GI50 (KM-20L2): > 100 µM (inactive)
- GI50 (KM12): > 100 µM (inactive)
- GI50 (LOX IMVI): > 100 µM (inactive)
- GI50 (LXFL 529): > 100 µM (inactive)
- GI50 (M14): > 100 µM (inactive)
- GI50 (M19-MEL): > 100 µM (inactive)
- GI50 (MOLT-4): 44.8 µM (inactive)
- GI50 (Malme-3M): > 100 µM (inactive)
- GI50 (NCI-H226): > 100 µM (inactive)
- GI50 (NCI-H23): > 100 µM (inactive)
- GI50 (NCI-H460): > 100 µM (inactive)
- GI50 (NCI-H522): 34.2 µM (inactive)
- GI50 (OVCAR-3): > 100 µM (inactive)
- GI50 (OVCAR-4): > 100 µM (inactive)
- GI50 (OVCAR-5): > 100 µM (inactive)
- GI50 (OVCAR-8): > 100 µM (inactive)
- GI50 (RPMI-8226): > 100 µM (inactive)
- GI50 (RXF 393): 59.2 µM (inactive)
- GI50 (SF-268): > 100 µM (inactive)
- GI50 (SF-295): > 100 µM (inactive)
- GI50 (SF-539): > 100 µM (inactive)
- GI50 (SK-MEL-28): > 100 µM (inactive)
- GI50 (SK-MEL-2): > 100 µM (inactive)
- GI50 (SK-OV-3): > 100 µM (inactive)
- GI50 (SN12C): > 100 µM (inactive)
- GI50 (SNB-19): > 100 µM (inactive)
- GI50 (SNB-78): > 100 µM (inactive)
- GI50 (SR): 73.8 µM (inactive)
- GI50 (SW-620): > 100 µM (inactive)
- GI50 (TK-10): > 100 µM (inactive)
- GI50 (U-251): > 100 µM (inactive)
- GI50 (UACC-257): > 100 µM (inactive)
- GI50 (UACC-62): > 100 µM (inactive)
- GI50 (UO-31): > 100 µM (inactive)
